# Patent publication US4321260A, “Method of using gonadorelin for the treatment of benign prostatic hyperplasia” (Ayerst, McKenna & Harrison Inc., priority 1980, dated 1982)
# Entries after “also recorded” stand apart in the source; their conditions may differ.
# Tests used:
# [1] = tested on: seminal vesicles; experiment: 3-week daily s.c. treatment of male rats, weight of the seminal vesicles; type: in vivo, Sprague-Dawley rats; details: for weight of the seminal vesicles (wet weight): male rats
# Procedure: (§1) Adult male Sprague-Dawley rats weighing 275-325 g upon arrival were obtained from Canadian Breeding Laboratories, St. Constant, Quebec, Canada. All animals were housed 2 per cage in an air-conditioned (21±1° C.; 45-50% humidity) and light (12 hours light, 12 hours darkness)-controlled room and given food and water ad libitum. […] Rats were killed by decapitation 24 hours after the last injection. The testes, seminal vesicles and ventral prostate were removed, chilled, weighed and kept frozen at -20° C. until use.
# [2] = tested on: ventral prostate; experiment: 3-week daily s.c. treatment of male rats, weight of the ventral prostate; type: in vivo, Sprague-Dawley rats; details: for weight of the ventral prostate (wet weight): male rats
# Procedure: as §1
# [3] = tested on: testes; details: in vivo; cited from earlier work
# [4] = 25μg s.c. daily, 1 week of treatment
# [5] = 25μg s.c. daily, 2 weeks of treatment
# [6] = 25μg s.c. daily, 3 weeks of treatment
# [7] = 250μg s.c. daily, 1 week of treatment
# [8] = 250μg s.c. daily, 2 weeks of treatment
# [9] = 250μg s.c. daily, 3 weeks of treatment
# [10] = 2500μg s.c. daily, 1 week of treatment
# [11] = 2500μg s.c. daily, 2 weeks of treatment
# [12] = 2500μg s.c. daily, 3 weeks of treatment
# [13] = daily subcutaneous administration to male rats up to three weeks, listed as gonadorelin
molecule,measurement,setting,value
"CC(C)C[C@H](NC(=O)CNC(=O)[C@H](Cc1ccc(O)cc1)NC(=O)[C@H](CO)NC(=O)[C@H](Cc1c[nH]c2ccccc12)NC(=O)[C@H](Cc1cnc[nH]1)NC(=O)[C@@H]1CCC(=O)N1)C(=O)N[C@@H](CCCNC(=N)N)C(=O)N1CCC[C@H]1C(=O)NCC(N)=O [LH-RH, Pyr-His-Trp-Ser-Tyr-Gly-Leu-Arg-Pro-Gly-NH2]",weight of the seminal vesicles (wet weight),[1]; [4],281 ± 14 mg
same,weight of the seminal vesicles (wet weight),[1]; [5],247 ± 9 mg
same,weight of the seminal vesicles (wet weight),[1]; [6],260 ± 13 mg
same,weight of the seminal vesicles (wet weight),[1]; [7],298 ± 10 mg
same,weight of the seminal vesicles (wet weight),[1]; [8],249 ± 18 mg
same,weight of the seminal vesicles (wet weight),[1]; [9],210 ± 8 mg
same,weight of the seminal vesicles (wet weight),[1]; [10],265 ± 10 mg
same,weight of the seminal vesicles (wet weight),[1]; [11],236 ± 13 mg
same,weight of the seminal vesicles (wet weight),[1]; [12],225 ± 9 mg
same,effect on the weight of seminal vesicles (in words),[1]; [13],significant decrease; also recorded: significantly decreases
same,weight of the ventral prostate (wet weight),[2]; [4],359 ± 23 mg
same,weight of the ventral prostate (wet weight),[2]; [5],415 ± 31 mg
same,weight of the ventral prostate (wet weight),[2]; [6],378 ± 13 mg
same,weight of the ventral prostate (wet weight),[2]; [7],360 ± 26 mg
same,weight of the ventral prostate (wet weight),[2]; [8],380 ± 38 mg
same,weight of the ventral prostate (wet weight),[2]; [9],370 ± 25 mg
same,weight of the ventral prostate (wet weight),[2]; [10],325 ± 12 mg
same,weight of the ventral prostate (wet weight),[2]; [11],355 ± 31 mg
same,weight of the ventral prostate (wet weight),[2]; [12],373 ± 18 mg
same,effect on ventral prostate weight (in words),[2]; [13],significant decrease; also recorded: significantly decreases
"[D-Ala^6, des-Gly-NH2^10 ]-LH-RH ethylamide",selective effect (decrease of seminal vesicle and ventral prostate weight while not affecting testicular weight),[3],do not show such a selectivity
"[D-Leu^6,des-Gly-NH2^10 ]-LH-RH ethylamide",selective effect (decrease of seminal vesicle and ventral prostate weight while not affecting testicular weight),[3],do not show such a selectivity
